The text below walks through data of publication PMC9694897 (Metabolites, 2022).

The nature of series [1]: DPPH free radical scavenging assay. As to the method: Free radicals and 1,1-diphenyl, 2-picrylhydrazyl (DPPH) were used for the illustration of the free radical scavenging ability of the molecule. This assay involved the addition of different dilutions (250, 500 and 1000 μg/mL) of this compound to 0.004% methanolic solution of DPPH. […] Ascorbic acid, in this case, was used as a positive control. The percent activity was calculated according to the formula.

Series [2] is described as follows: ABTS free radical scavenging assay. To be noted: read-out: ABTS IC50.
Procedure: To determine the radical scavenging activity of the compound, we added 3.0 mL of ABTS solution to 300 mL of the compound in a cuvette. By spectrophotometer, we measured the absorbance reduction one minute after the mixing of the solution and continued measuring it for 6 min. For positive control, ascorbic acid is used. We then repeated the assay three times and calculated the percent of inhibition according to the formula [35].
The subject of series [3] is carrageenan induced inflammation. In words: In-vivo carrageenan method of inflammation (paw edema). To be noted: flavone 10 mg/kg, aspirin 100 mg/kg. The arrangement: species or system Albino mice. From the text:
(§1) The Albino mice with an average body weight of 25–30 g were obtained from NIH, Islamabad, Pakistan from our designed studies. The animals were kept in the animal house of the university and were kept under controlled conditions as per the standard guidelines. The animals were used in experiments according to the standard protocols as per the approval of Departmental Ethical Committee with approval letter number DREC-140 [36].
The progression of inflammation stimulated by carrageenan is a biphasic system. In the initial phase the serotonin and histamine were released, while in the second phase of swelling prostaglandin, bradykinin, leukotriene and lysozyme were mediated. The non-steroidal and steroidal drugs can wield their function in the second phase of the edema formation.
In the assay, animals were randomly divided into three groups with eight in each group. The first group, Group I, was the negative control and was given dimethyformamide 1% 10 mL/kg bw. […] The third group (Group III) was given 10 mg/kg bw of the isolated flavone. After ½ h, 1% of the saline solution of carrageenan (w/v, 0.05 mL) was given in a sub-planter area of the animals. Afterwards, the paw edema was determined with the help of a plethysmometer (Model LE 7500 plan. Lab SL) with different time intervals. The paw edema of the mice administered with flavone, and with those of the standard drug, were measured at different time intervals. The measurements of paw edema were compared with the mice serving as the negative control group. The percent inhibition activity was calculated as per the standard procedure.
Background: Carrageenan injected into the paw causes an acute inflammation.

A further series deals with T1, eeAChE (Electrophorus electricus, UniProt O42275).
T1 construct: the acetylcholinesterase enzymes used were obtained from an electric eel; from tissue; host or cells: electric eel
Nature of the series: biochemical. From the text: (§2) For the determination of anti-cholinesterase activity of the compounds, the acetylcholinesterase enzymes used were obtained from an electric eel. The butyrylcholinesterase (BChE) is obtained from equine serum. The principle of this assay is based on the hydrolysis of […] by the enzymes AChE and the hydrolysis of butyrylcholine iodide by the enzyme butyrylcholinesterase. This process of hydrolysis yields 5-thio-2-nitrobenzoate anion which then form a complex with DTNB (yellow color) which can be detected by spectrophotometer.
(§3) Then KOH was used for the adjustment of pH.
(§4) In each of these enzyme assays, the enzyme solution (5 μL) was added to the cuvette followed by the addition of the compound (205 μL), and finally DTNB reagents (5 μL) were added. The solution was maintained in a water bath at a temperature of 30 °C for 15 min, and then the substrate solution (5 μL) was added. […] The negative control consists of all the components except the compound. […] The absorbance, as well as the reaction time, were taken for 4 min at a temperature of 30 °C and were repeated in triplicate.

A further series deals with T2, eqBChE (Equus caballus, UniProt P81908).
T2 construct: The butyrylcholinesterase (BChE) is obtained from equine serum; from tissue; host or cells: equine serum
In words: Anti-cholinesterase assay (DTNB, spectrophotometric), BChE. The format is biochemical, equine.
Text: as §2, §3, §4

The target in the next series is T3, COX-2 (Homo sapiens, UniProt P35354).
T3 sequence (P35354 18-604): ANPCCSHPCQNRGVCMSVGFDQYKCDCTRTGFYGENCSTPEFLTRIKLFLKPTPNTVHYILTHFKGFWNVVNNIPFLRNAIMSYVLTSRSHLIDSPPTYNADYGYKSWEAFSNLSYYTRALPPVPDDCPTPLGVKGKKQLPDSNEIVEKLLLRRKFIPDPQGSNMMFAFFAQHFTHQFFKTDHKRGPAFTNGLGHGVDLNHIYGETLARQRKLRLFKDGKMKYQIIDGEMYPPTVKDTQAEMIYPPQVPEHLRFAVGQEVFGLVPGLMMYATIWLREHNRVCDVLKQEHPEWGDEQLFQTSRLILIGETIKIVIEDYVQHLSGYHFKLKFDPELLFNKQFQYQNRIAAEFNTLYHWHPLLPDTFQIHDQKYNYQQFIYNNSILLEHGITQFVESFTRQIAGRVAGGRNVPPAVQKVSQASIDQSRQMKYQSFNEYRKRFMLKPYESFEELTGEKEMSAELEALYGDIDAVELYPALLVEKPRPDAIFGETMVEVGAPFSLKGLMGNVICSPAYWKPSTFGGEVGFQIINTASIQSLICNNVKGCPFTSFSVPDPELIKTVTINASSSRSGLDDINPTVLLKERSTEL
Nature of the series: biochemical.

Series [4] deals with CCl4-induced oxidative stress markers (SOD, CAT, MDA, TP). Nature of the series: In-vivo antioxidant markers in CCl4-induced oxidative stress. The arrangement: species or system Albino mice. To be noted: CCl4 treated mice.
Text: as §1
In this assay, the experimental animals were divided into four groups with five animals in each group. Group I was given the corn oil as a vehicle. The remaining three groups ([…]) were given CCl4 in corn oil in a ratio of 1 to 5 (v/v) for the induction of oxidative stress. The two groups were given 5 and 10 mg/kg bw of the isolated flavone for two weeks. One day after the last administration, the animals were given IM zoletil50 (30 mg/kg bw) with xylazine (5 mg/kg bw) for about 10 min to get anesthetized. Afterwards, the blood sample was taken out by cardiac puncture into EDTA-tubes. After the experiments, the animals were euthanized as per the standard procedure. The blood (200 μL) was centrifuged for 10 min at the rate of 3000 rpm. The plasma was used for the biochemical studies. Afterwards, 0.9% of physiological saline was added to the cellular layer to double up the volume. Again, it was centrifuged under the same set of conditions and the upper layer was discarded. The experiments were repeated three times and erythrocytes were isolated. The isolated erythrocytes were stored at a low temperature (−20 °C). The vital organs like kidneys, liver and heart were harvested, washed and weighted.
The RBCs were employed in a cellular model to evaluate the potency of antioxidants to penetrate into the living cells from plasma.
The superoxide dismutase assay was performed as per the reported procedure. […] The reaction was initiated with the addition of adrenaline (0.3 mM, 0.3 mL) to the buffered mixture. This was mixed immediately and was subjected to a spectrophotometer as a sample cuvette. The solution of buffer (2.5 mL), substrate (0.3 mL) and distilled water (0.2 mL) were added in the reference cuvette. The increase in absorbance (480 nm) was monitored for 2.5 min with 30 sec intervals against a blank. The SOD was calculated as per the reported procedure.
The catalase assay on the isolated compound was performed as per the standard protocols. […] To each of these test tubes, potassium dichromate was added. The tubes were heated for 10 min up to 100 °C. The tubes were then allowed to cool down and optical density was measured at 570 nm. The standard curve of concentration vs. absorbance of H2O2 was plotted. Afterwards, haemolysate (1 mL) was diluted and added to the test tube containing H2O2 (2 mL) and phosphate buffer (2.5 mL, 0.01 M having pH 7.0) and were mixed. After every 30 sec, one ml of solution was withdrawn and was transferred to acidified potassium dichromate (2 mL) for 2 min. This was mixed and heated up to 100 °C for 10 min. The solution was then cooled down and optical density was measured (at 570 nm) against the blank. The catalase activity was calculated as per the standard method.
The lipid peroxidation was performed with malondialdehyde assay as per the reported methods. The diluted haemolysate (0.4 mL, 1:10 v/v) was added to the test tube containing acetic acid sodium hydroxide along with thiobarbituric acid, having a volume of 2 mL each. […] The activity was then calculated as per the standard method.
The total proteins assay of the experiment was performed as per the standard method. The diluted haemolysate (0.2 mL), bovine albumin (0.2 mL, 2 g/dl), distilled water (2 mL) and working reagent 1 mL (CuSO4 with NaK one part and Na2CO3 with NaOH 100 parts) were added in different test tubes. This was mixed and incubated at room temperature for 10 min. […] The absorbance was measured at 570 nm against the blank.

Another series is described as follows: Acute toxicity. To be noted: mice, 25-2000 mg/kg b. wt, monitored 3 days.
Text: as §1

Another series deals with 5-LOX. To be noted: read-out: IC50 5-LOX.
The target of a further series is T4, Human recombinant MAO-B (Homo sapiens, UniProt P27338).
T4 sequence (P27338 1-520): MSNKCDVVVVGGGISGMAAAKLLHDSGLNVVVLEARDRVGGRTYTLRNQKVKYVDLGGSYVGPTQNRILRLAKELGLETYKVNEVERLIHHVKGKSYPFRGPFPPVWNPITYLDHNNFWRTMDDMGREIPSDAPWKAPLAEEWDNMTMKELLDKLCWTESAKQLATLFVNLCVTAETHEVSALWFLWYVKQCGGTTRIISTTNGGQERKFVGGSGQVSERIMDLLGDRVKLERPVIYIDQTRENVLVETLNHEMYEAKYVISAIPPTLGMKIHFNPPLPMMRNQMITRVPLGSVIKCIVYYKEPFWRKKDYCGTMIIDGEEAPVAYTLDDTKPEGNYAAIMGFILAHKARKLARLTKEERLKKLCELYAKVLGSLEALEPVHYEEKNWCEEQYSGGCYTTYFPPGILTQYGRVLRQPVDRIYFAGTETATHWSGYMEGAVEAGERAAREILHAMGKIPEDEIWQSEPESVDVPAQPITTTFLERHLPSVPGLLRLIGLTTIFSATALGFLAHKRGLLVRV
Nature of the series: MAO-B inhibition assay (Amplex Red).

T2 sequence (P81908 whole entry): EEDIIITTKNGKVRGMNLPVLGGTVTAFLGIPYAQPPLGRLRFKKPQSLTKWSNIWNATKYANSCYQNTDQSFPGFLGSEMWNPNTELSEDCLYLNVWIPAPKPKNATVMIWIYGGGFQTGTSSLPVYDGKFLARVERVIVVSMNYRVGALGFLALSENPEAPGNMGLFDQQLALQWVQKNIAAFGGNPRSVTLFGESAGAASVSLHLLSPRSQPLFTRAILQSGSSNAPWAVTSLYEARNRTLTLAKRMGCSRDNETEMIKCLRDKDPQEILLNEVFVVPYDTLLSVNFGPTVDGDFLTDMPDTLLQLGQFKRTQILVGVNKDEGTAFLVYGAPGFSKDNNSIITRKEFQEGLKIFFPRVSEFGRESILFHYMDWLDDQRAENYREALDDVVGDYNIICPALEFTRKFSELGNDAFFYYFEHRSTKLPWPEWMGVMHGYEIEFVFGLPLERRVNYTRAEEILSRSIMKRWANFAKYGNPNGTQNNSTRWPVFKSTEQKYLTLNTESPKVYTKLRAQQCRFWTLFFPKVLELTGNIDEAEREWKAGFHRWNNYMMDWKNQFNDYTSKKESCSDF
T1 sequence (O42275 24-633): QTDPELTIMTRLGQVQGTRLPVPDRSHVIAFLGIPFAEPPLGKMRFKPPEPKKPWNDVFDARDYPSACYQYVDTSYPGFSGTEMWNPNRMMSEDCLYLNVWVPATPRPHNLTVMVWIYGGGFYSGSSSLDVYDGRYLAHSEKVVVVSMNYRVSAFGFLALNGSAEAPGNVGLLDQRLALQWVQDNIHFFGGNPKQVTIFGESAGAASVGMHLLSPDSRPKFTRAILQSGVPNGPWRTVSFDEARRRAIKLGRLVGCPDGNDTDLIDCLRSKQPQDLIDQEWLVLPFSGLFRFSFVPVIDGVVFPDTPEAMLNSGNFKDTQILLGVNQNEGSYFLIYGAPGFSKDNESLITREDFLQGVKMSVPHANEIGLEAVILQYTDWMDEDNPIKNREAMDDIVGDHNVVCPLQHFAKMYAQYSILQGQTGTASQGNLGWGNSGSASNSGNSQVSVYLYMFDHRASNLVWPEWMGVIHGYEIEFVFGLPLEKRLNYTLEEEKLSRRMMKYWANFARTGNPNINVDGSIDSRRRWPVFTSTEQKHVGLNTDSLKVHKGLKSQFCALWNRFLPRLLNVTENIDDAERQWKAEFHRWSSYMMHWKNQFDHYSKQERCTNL
Procedure for 5-LOX: Using an established procedure, the 5-lipoxygenase activity was performed. […] Afterwards, the 5-lipoxygenase solution (10,000 Unit/mL) was prepared. Linoleic acid (80 Mm) was the substrate used for the 5-LOX assay. We also prepared phosphate buffer (50 Mm) with PH 6.3. WE dissolved the various concentrations of the compound in each 0.25 mL of phosphate buffer, then added 0.25 mL of lipoxygenase enzyme to it and incubated it at 25 °C for 5 min. […] We repeated this experiment three times. The standard drug used was Zileuton [36]. By using the following equation, percent inhibition was calculated: Percent inhibition=Absorbance of control−absorbance of sample/Absorbance of control×100
Procedure for Human recombinant MAO-B: Human recombinant MAO-B enzymes used in this assay were obtained from insect cells. The substrate used for MAO-B enzyme is benzylamine hydrochloride. For all the enzymes reactions, as well as for dilutions sodium phosphate buffer (0.05 M), a PH of 7.4 is used. […] The activity of the test compound hMAO-B assay is determined by calculating its effect on H2O2 production from benzylamine while using an Amplex Red MAO assay kit (Invitrogen). In this assay, a volume of 0.1 mL sodium phosphate buffer (0.05 M) with a PH of 7.4, which contains different concentrations of the test compound (reference inhibitors or new compound) and a sufficient quantity of recombinant hMAO-B (0.5 μL, 71 Unit/mg) is incubated at 37 °C for 1 h in a 96-well plate. After incubating, the reaction was initiated by the addition of (final concentration) 200 μM Amplex Red reagent, 1 mM benzylamine hydrochloride and 1 Unit/mL horseradish peroxidase. The H2O2 production, and finally resorufin, was measured in a multi-detection microplate fluorescence reader (TECAN) at 37 °C and with an absorbance of 570 nm. […] Then, specific fluorescence absorbance was determined after subtracting the background activity, measured from the vials which contains all the components except hMAO-B, and was replaced by buffer solution [34].

Take `C[C@H]1O[C@H](O[C@H]2[C@H](O)[C@@H](O)[C@@H](O[C@H]3[C@H](O)[C@@H](O)C(O)O[C@@H]3CO)O[C@@H]2CO)[C@H](O)[C@@H](O)[C@@H]1N[C@H]1C=C(CO)[C@@H](O)[C@H](O)[C@H]1O` (some centres unmarked) [Acarbose, reference compound]: the figures for the IC50 in series [1] and in [2] were 16000 nM and 12700 nM, respectively.

As to `CC(=O)Oc1ccccc1C(=O)O` [Aspirin, reference compound], the “percent inhibition of paw edema” value amounted to 57.64% in series [3] (fifth h); 47.54% in [3] (first hour); 56.92% in series [3] (fourth h); 54.63% in series [3] (second hour); 53.26% in series [3] (third h).

For the molecule `COc1ccc(-c2oc3cc(O)ccc3c(=O)c2O)cc1OC` [Isolated flavone, 2-(3,4-dimethoxyphenyl)-3,7-dihydroxy-4H-chromen-4-one], the IC50 on eeAChE was found to be 1370 ± 10 nM; on eqBChE, 950 ± 40 nM; against COX-2, 380 ± 120 nM; in [1], 44300 nM; in the series with 5-LOX, 840 ± 130 nM; in [2], 33400 nM. The IC50 at Human recombinant MAO-B is 140 ± 10 nM. The molecule further returned an SI on eqBChE of 1.44. Besides, the “SI (COX-2 selectivity)” value at COX-2 is given as 18.70. For the same molecule, the “percent inhibition of paw edema” value in series [3] (fifth h) came to 45%; in series [3] (first hour), 45%; in [3] (fourth h), 49%; in series [3] (second hour), 47%; in series [3] (third h), 42%. For the same molecule, the MDA blood levels is listed as 1.15 ± 0.05 µmol/L in [4] (5 mg/kg for two weeks) and 1.05 ± 0.03 µmol/L in series [4] (10 mg/kg for two weeks). In addition, the entries for the “SOD blood levels (second mention)” value in [4] (5 mg/kg for two weeks) and in [4] (10 mg/kg for two weeks) were 0.12 ± 0.02 UL/mg and 0.12 ± 0.32 UL/mg, respectively. Further, the figures for the SOD levels in [4] (5 mg/kg for two weeks) and in [4] (10 mg/kg for two weeks) were 8.52 ± 0.51 UL/mg and 9.58 ± 0.41 UL/mg, respectively. Further, the TP levels entry in [4] (treated groups versus CCl4 group) is given as “significantly changed”. In addition, the “safety in animals (acute toxicity)” value in the series “Acute toxicity” was “safe”.

What is called IC50 is the concentration at which inhibition is half-maximal.
